Test results reported in ChEMBL document CHEMBL5729163, “Substituted cyclohexyl compounds as NOP inhibiiors” (2022).

target: Nociceptin receptor (Homo sapiens, UniProt P41146); assay: Cell-Based NOP Assay: Formula (I) compounds were tested for antagonism of the nociceptin receptor (NOP) in a cell-based cAMP assay, using the LANCE cAMP Detection Kit, Perkin Elmer (Waltham, Mass.). This assay (LANCE cAMP) is a homogeneous, time-resolved fluorescence resonance energy transfer (TR-FRET) immunoassay designed to measure cAMP produced upon modulation of adenylyl cyclase activity by G protein-coupled receptors (GPCRs).ProtocolCells expressing human opioid NOP (ValiScreen cell line, cat #ES-230-C Perkin Elmer (Waltham, Mass.) were dispensed in simulation buffer (5 mM Hepes, 0.1% BSA, 0.5 mM IBMX in Hanks Buffered Saline Solution) at 2.5 μL cells per well (400 cells/well) into a 1536 white TC-treated assay plate. Compound was then added and plates were incubated for 15 minutes at room temperature. To each well was added 2.5 μL of a solution containing forskolin (3 μM final) and nociceptin peptide (390 pM final) diluted in stimulation buffer, and the plates were incubated for 30 minutes at room temperature. To each well was dispensed 5 μL of LANCE Ultra detection (1:300 dilution of anti-cAMP ULight with a 1:100 dilution of Eu-cAMP tracer diluted in cAMP Detection Buffer) reagent, and the plates were incubated for 1 hr at room temperature. The plate was then read on the ViewLux microplate reader (Perkin Elmer, Waltham, Mass.) using the LANCE 1536 protocol with 60 second exposure times and 50 μs delay. This protocol has an excitation wavelength of 340 nm (DUG11 filter) and emission wavelengths of 615 nm (Eu-Donor) and 665 nm (Alexa 647 cAMP antibody acceptor).Data AnalysisData was analyzed, normalized, and visualized using ACAS (John McNeil & Co.). Efficacy was calculated using activity of the vehicle (DMSO) as 0% efficacy and the activity of the corresponding reference positive control (SCH 221510, Tocris Bioscience (Pittsburgh, Pa.), Catalog number 3240) as 100% efficacy. Activity was calculated as the ratio of donor and acceptor emissions. All curve fits and IC50 determinations were performed using a non-linear regression model. The IC50 value was measured as the concentration at which half-maximal response was calculated.
Sequence (P41146 whole entry): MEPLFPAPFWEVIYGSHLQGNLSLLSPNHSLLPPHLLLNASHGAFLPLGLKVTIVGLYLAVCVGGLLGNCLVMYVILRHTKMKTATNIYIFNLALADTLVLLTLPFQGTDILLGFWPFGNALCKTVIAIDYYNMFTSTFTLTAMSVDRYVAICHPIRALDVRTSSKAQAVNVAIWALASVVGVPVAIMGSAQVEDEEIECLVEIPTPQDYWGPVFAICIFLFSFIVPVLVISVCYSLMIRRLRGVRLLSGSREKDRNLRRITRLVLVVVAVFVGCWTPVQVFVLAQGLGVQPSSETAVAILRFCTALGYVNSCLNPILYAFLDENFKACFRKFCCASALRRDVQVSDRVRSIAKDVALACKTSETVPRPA

Structure (SMILES) | IC50 [nM]
NC(=O)C1(NCC[C@H]2CC[C@@H](c3ccc(F)cc3Cl)CC2)CCCOC1 (some centres undefined) | 100 to 1000
CC1(NCCC2CCC(c3ncccc3Cl)CC2)CCOCC1 (centres undefined) | 100 to 1000
O=C(NCC1CC1)C1(NCC[C@H]2CC[C@@H](c3ccc(F)cc3Cl)CC2)CCCC1 | 100 to 1000
COCC1(NCC[C@H]2CC[C@@H](c3ccc(F)cc3Cl)CC2)CCNC(=O)C1 (some centres undefined) | 10 to 100
Cc1c(C#N)cccc1[C@H]1CC[C@@H](CCNC2CCOCC2)CC1 | 100 to 1000
Fc1ccc(C2CCC(CCN[C@H]3CC[C@@H](F)C3)CC2)c(Cl)c1 (some centres undefined) | < 1
Cc1cccnc1[C@H]1CC[C@@H](CCNC2CCOCC2)CC1 | 10 to 100
COCC1(NCCC2CCC(c3ccccc3Cl)CC2)CCOCC1 (centres undefined) | 10 to 100
COCC1(NCCC2CCC(c3ccc(F)cc3F)CC2)CCOCC1 (centres undefined) | 10 to 100
Fc1ccc([C@H]2CC[C@@H](CCNC3CCC(F)(F)C3)CC2)c(Cl)c1 (some centres undefined) | < 1
Cc1cc(F)ccc1C1CCC(CCNC2CCCCC2)CC1 (centres undefined) | 100 to 1000
COCC1(NCC[C@H]2CC[C@H](c3ncc(F)cc3Cl)CC2)CCOCC1 | 100 to 1000
CNC(=O)C1(NCC[C@H]2CC[C@H](c3c(F)cncc3Cl)CC2)CCOCC1 | 10 to 100
Cc1ccncc1[C@H]1CC[C@H](CCNC2CCOCC2)CC1 | 100 to 1000
CC1(NCCC2CCC(c3cc(F)ccc3Cl)CC2)CCCC1 (centres undefined) | 100 to 1000
Cc1cccnc1C1CCC(CCNC2CCCC2)CC1 (centres undefined) | 100 to 1000
Cc1cccnc1C1CCC(CCNC2(C)CCOCC2)CC1 (centres undefined) | 100 to 1000
CC1(NCC[C@H]2CC[C@@H](c3ccc(F)cc3Cl)CC2)CCNC(=O)C1 (some centres undefined) | 10 to 100
Clc1ccccc1C1CCC(CCNC2CCOCC2)CC1 (centres undefined) | 1 to 10
NC(=O)C1(NCC[C@H]2CC[C@@H](c3cc(F)ccc3Cl)CC2)CCOCC1 | 10 to 100
CNC(=O)C1(NCC[C@H]2CC[C@@H](c3ccc(F)cc3Cl)CC2)CCOCC1 | < 1
NC(=O)C1(NCC[C@H]2CC[C@@H](c3ccc(F)cc3C(F)(F)F)CC2)CCOCC1 | 1 to 10
Clc1cccnc1[C@H]1CC[C@@H](CCNC2CCOCC2)CC1 | 10 to 100
COCC1(NCCC2CCC(c3cnccc3C)CC2)CCOCC1 (centres undefined) | 100 to 1000
CNC(=O)C1(NCC[C@H]2CC[C@@H](c3ccc(F)cc3C(F)(F)F)CC2)CCOCC1 | 1 to 10
Fc1cnc([C@H]2CC[C@H](CCNC3CCOCC3)CC2)c(Cl)c1 | 1 to 10

Structure (SMILES) | IC50 [nM]
COCC1(NCCC2CCC(c3cc(F)ccc3Cl)CC2)CCOCC1 (centres undefined) | 10 to 100
CO[C@@H]1COCC[C@@H]1NCC[C@H]1CC[C@@H](c2ccc(F)cc2Cl)CC1 | 1 to 10
CNC(=O)C1(NCC[C@H]2CC[C@H](c3ccc(F)cc3C(F)(F)F)CC2)CCOCC1 | 1 to 10
NC(=O)C1(NCC[C@H]2CC[C@@H](c3ccc(F)cc3Cl)CC2)CCOCC1 | 1 to 10
NC(=O)C1(NCC[C@H]2CC[C@@H](c3ccc(F)cc3Cl)CC2)CCCC1 | 10 to 100
NC(=O)C1(NCC[C@H]2CC[C@@H](c3ncc(F)cc3Cl)CC2)CCOCC1 | 10 to 100
Fc1ccc([C@H]2CC[C@@H](CCNC3CCOCC3)CC2)c(Cl)c1 | < 1
Fc1cnc([C@H]2CC[C@@H](CCNC3CCOCC3)CC2)nc1 | 100 to 1000
CNC(=O)C1(NCC[C@H]2CC[C@H](c3ccc(F)cc3F)CC2)CCOCC1 | 1 to 10
CNC(=O)C1(NCC[C@H]2CC[C@@H](c3ccc(F)cc3Cl)CC2)CCCC1 | 1 to 10
Fc1cccc(Cl)c1C1CCC(CCNC2CCCCC2)CC1 (centres undefined) | 1 to 10
CNC(=O)C1(NCCC2CCC(c3ccc(Cl)cc3F)CC2)CCCC1 (centres undefined) | 100 to 1000
Fc1cccc(Cl)c1[C@H]1CC[C@@H](CCNC2CCOCC2)CC1 | < 1
CN1CCC(NCCC2CCC(c3ncc(F)cc3Cl)CC2)CC1 (centres undefined) | 100 to 1000
OC1CCCC1NCC[C@H]1CC[C@@H](c2ccc(F)cc2Cl)CC1 (some centres undefined) | < 1
NC(=O)C1(NCCC2CCC(c3ccc(F)cc3F)CC2)CCCC1 (centres undefined) | 100 to 1000
NC(=O)C1(NCC[C@H]2CC[C@H](c3ncc(F)cc3Cl)CC2)CCOCC1 | 10 to 100
Cc1cccnc1C1CCC(CCNC2CCCCC2)CC1 (centres undefined) | 100 to 1000
Cc1cnccc1[C@H]1CC[C@@H](CCNC2CCOCC2)CC1 | 100 to 1000
O=C1C[C@@H](NCC[C@H]2CC[C@@H](c3ccc(F)cc3Cl)CC2)CCN1 | 1 to 10
OC1COCCC1NCC[C@H]1CC[C@@H](c2ccc(F)cc2Cl)CC1 (some centres undefined) | < 1
Cc1cnccc1C1CCC(CCNC2CCCCC2)CC1 (centres undefined) | 100 to 1000
O=C1C[C@H](NCC[C@H]2CC[C@@H](c3ncc(F)cc3Cl)CC2)CCN1 | 1 to 10
Cc1cc(F)cc(F)c1[C@H]1CC[C@H](CCNC2(C(N)=O)CCOCC2)CC1 | 1 to 10
Fc1cnc(C2CCC(CCNC3CCCCC3)CC2)c(Cl)c1 (centres undefined) | 1 to 10
NC(=O)C1(NCC[C@H]2CC[C@H](c3cc(F)ccc3Cl)CC2)CCOCC1 | 10 to 100

Structure (SMILES) | IC50 [nM]
COCC1(NCCC2CCC(c3cccc(F)c3Cl)CC2)CCOCC1 (centres undefined) | 100 to 1000
CC1(NCC[C@H]2CC[C@H](c3ncc(F)cc3Cl)CC2)CCNC(=O)C1 (some centres undefined) | 10 to 100
CC(=O)N1CCC(NCCC2CCC(c3ccc(F)cc3C)CC2)CC1 (centres undefined) | 100 to 1000
Fc1ccc([C@H]2CC[C@@H](CCNC3CCCC3)CC2)c(Cl)c1 | < 1
Cc1c(C#N)cccc1[C@H]1CC[C@H](CCNC2CCOCC2)CC1 | 100 to 1000
Fc1ccc(C2CCC(CCNC3CCCCC3)CC2)c(F)c1 (centres undefined) | 10 to 100
CCNC(=O)C1(NCC[C@H]2CC[C@H](c3ncc(F)cc3Cl)CC2)CCOCC1 | 10 to 100
O=C1C[C@@H](NCC[C@H]2CC[C@H](c3ncc(F)cc3Cl)CC2)CCN1 | 100 to 1000
CNC(=O)C1(NCCC2CCC(c3ncc(F)cc3Cl)CC2)CCCC1 (centres undefined) | 10 to 100
CC1(NCCC2CCC(c3ncc(F)cc3Cl)CC2)CCOCC1 (centres undefined) | 100 to 1000
COCC1(NCC[C@H]2CC[C@@H](c3ncc(F)cc3Cl)CC2)CCOCC1 | 10 to 100
NC(=O)C1(NCC[C@H]2CC[C@H](c3ncccc3Cl)CC2)CCOCC1 | 100 to 1000
O=C1CC(NCC[C@H]2CC[C@@H](c3ccc(F)cc3Cl)CC2)CCN1 (some centres undefined) | < 1
NC(=O)C1(NCC[C@H]2CC[C@@H](c3ncccc3Cl)CC2)CCOCC1 | 100 to 1000
CNC(=O)C1(NCC[C@H]2CC[C@@H](c3ncc(F)cc3Cl)CC2)CCOCC1 | 1 to 10
Fc1cc(Cl)ccc1C1CCC(CCNC2CCCCC2)CC1 (centres undefined) | 1 to 10
CC1(NCCC2CCC(c3ncccc3Cl)CC2)CCCC1 (centres undefined) | 100 to 1000
NC(=O)C1(NCC[C@H]2CC[C@@H](c3ccc(F)cc3Cl)CC2)CCOC1 (some centres undefined) | 100 to 1000
Cc1cc(F)cc(F)c1[C@H]1CC[C@@H](CCNC2(C(N)=O)CCOCC2)CC1 | 1 to 10
CNC(=O)C1(NCCC2CCC(c3ncccc3Cl)CC2)CCCC1 (centres undefined) | 100 to 1000
CN1CCC(NCC[C@H]2CC[C@@H](c3ccc(F)cc3Cl)CC2)CC1=O (some centres undefined) | 10 to 100
Fc1cnc(C2CCC(CCNC3(C4CC4)CCOCC3)CC2)c(Cl)c1 (centres undefined) | 10 to 100
Oc1cccc([C@H]2CC[C@@H](CCNC3CCOCC3)CC2)c1 | 100 to 1000
COCC1(NCCC2CCC(c3c(F)cccc3Cl)CC2)CCOCC1 (centres undefined) | 10 to 100
COCC1(NCC[C@H]2CC[C@@H](c3ccc(F)cc3Cl)CC2)CCOCC1 | 1 to 10
NC(=O)C1(NCC[C@H]2CC[C@@H](c3c(F)cc(F)cc3Cl)CC2)CCOCC1 | 1 to 10

Structure (SMILES) | IC50 [nM]
Cc1cccnc1[C@H]1CC[C@H](CCNC2CCOCC2)CC1 | 100 to 1000
Fc1cccc(Cl)c1[C@H]1CC[C@H](CCNC2CCOCC2)CC1 | 1 to 10
NC(=O)C1(NCC[C@H]2CC[C@H](c3c(F)cc(F)cc3F)CC2)CCOCC1 | 1 to 10
Cc1cc(F)c(F)cc1[C@H]1CC[C@H](CCN[C@@H]2CCNC(=O)C2)CC1 | 10 to 100
O=C1C[C@H](NCC[C@H]2CC[C@@H](c3ccc(F)cc3Cl)CC2)CCN1 | < 1
CNC(=O)C1(NCC[C@H]2CC[C@@H](c3ccc(F)cc3F)CC2)CCOCC1 | 10 to 100
Cc1ccncc1[C@H]1CC[C@@H](CCNC2CCOCC2)CC1 | 100 to 1000
CS(=O)(=O)N1CCC(NCC[C@H]2CC[C@@H](c3ccc(F)cc3Cl)CC2)CC1 | 10 to 100
Cc1cc(F)ccc1[C@H]1CC[C@@H](CCNC2(C(N)=O)CCOCC2)CC1 | 1 to 10
O=C1C[C@@H](NCC[C@H]2CC[C@@H](c3ncc(F)cc3Cl)CC2)CCN1 | 10 to 100
CN1CCC(NCCC2CCC(c3cc(F)ccc3Cl)CC2)CC1 (centres undefined) | 100 to 1000
Cc1cnccc1C1CCC(CCNC2CCOCC2)CC1 (centres undefined) | 100 to 1000
COCC1(NCCC2CCC(c3ncc(F)cc3Cl)CC2)CCOCC1 (centres undefined) | 100 to 1000
Clc1cccnc1[C@H]1CC[C@H](CCNC2CCOCC2)CC1 | 10 to 100
Fc1ccc(Cl)c(C2CCC(CCNC3CCOCC3)CC2)c1 (centres undefined) | 1 to 10
CNC(=O)C1(NCC[C@H]2CC[C@@H](c3c(F)cncc3Cl)CC2)CCOCC1 | 1 to 10
CC(=O)N1CCC(NCCC2CCC(c3ccc(Cl)cc3F)CC2)CC1 (centres undefined) | 100 to 1000
CC1(NCCC2CCC(c3ncc(F)cc3Cl)CC2)CCCC1 (centres undefined) | 10 to 100
NC(=O)C1(NCC[C@H]2CC[C@H](c3cccc(F)c3Cl)CC2)CCOCC1 | 100 to 1000
Fc1cccc(C2CCC(CCNC3CCCCC3)CC2)c1Cl (centres undefined) | 10 to 100
Clc1cccnc1C1CCC(CCNC2CCCCC2)CC1 (centres undefined) | 100 to 1000
NC(=O)C1(NCC[C@H]2CC[C@@H](c3ccc(F)cc3F)CC2)CCOCC1 | 10 to 100
OCC1(NCC[C@H]2CC[C@@H](c3ccc(F)cc3Cl)CC2)CCOCC1 | 1 to 10
Fc1ccc(Cl)c(C2CCC(CCNC3CCCC3)CC2)c1 (centres undefined) | 10 to 100
Fc1cnc([C@H]2CC[C@@H](CCNC3CCOCC3)CC2)c(Cl)c1 | < 1
Cc1cc(F)c(F)cc1[C@H]1CC[C@H](CCNC2(C(N)=O)CCOCC2)CC1 | 100 to 1000
